Source: patent US8637269B2, “Method for the detection of melamine” (Bioo Scientific Corporation, priority 2009, dated 2014)

Target: recombinant MDA enzyme (melamine deaminase, Tri A) (Paracidovorax citrulli, UniProt Q9EYU0)
Assay: Enzymatic detection of melamine in microtiter plates (MDA-mediated conversion to ammonia, indophenol colour)
Assay type: biochemical, Pseudomonas sp. strain NRRL B-12227
Details: melamine (1000 ppm stock) and MDA enzyme diluted in 0.1 M Na-MOPS pH 7, overnight (about 12 hours), room temperature; salicylate/nitroprusside and NaOH/hypochlorite reagents; FIG. 2
Excerpt: The TriA gene encoding the melamine deaminase enzyme was inserted into the multiple cloning site region of the pET 24b bacterial expression plasmid. This subcloning strategy places the gene under the transcriptional regulation of the T7 RNA polymerase and fuses a His6 peptide tag onto the C-terminus of the protein to facilitate purification. We expressed the protein (MW about 50 kDa) in E. coli strain BL21 (DE3) and obtained significant amounts of soluble protein in the induced bacterial cultures. After disruption the lysed cell extract was passed over a Talon Cobalt column to bind the His6-tagged protein. After washing the column the bound protein was eluted from the column and dialyzed to remove imidazole.
Purified, desalted recombinant MDA enzyme (about 2 mg/ml in 0.1 M Na-MOPS buffer pH 7) and melamine (1000 ppm) were diluted into 0.1 M Na-MOPS buffer (pH 7) and incubated overnight (about 12 hours) at room temperature. Reaction aliquots were removed and tested for the production of ammonia by mixing the samples with salicylate/nitroprusside and NaOH/hypochlorite reagents in 96 well microtiter plates.

Chain of recombinant MDA enzyme (melamine deaminase, Tri A) (Q9EYU0 whole entry): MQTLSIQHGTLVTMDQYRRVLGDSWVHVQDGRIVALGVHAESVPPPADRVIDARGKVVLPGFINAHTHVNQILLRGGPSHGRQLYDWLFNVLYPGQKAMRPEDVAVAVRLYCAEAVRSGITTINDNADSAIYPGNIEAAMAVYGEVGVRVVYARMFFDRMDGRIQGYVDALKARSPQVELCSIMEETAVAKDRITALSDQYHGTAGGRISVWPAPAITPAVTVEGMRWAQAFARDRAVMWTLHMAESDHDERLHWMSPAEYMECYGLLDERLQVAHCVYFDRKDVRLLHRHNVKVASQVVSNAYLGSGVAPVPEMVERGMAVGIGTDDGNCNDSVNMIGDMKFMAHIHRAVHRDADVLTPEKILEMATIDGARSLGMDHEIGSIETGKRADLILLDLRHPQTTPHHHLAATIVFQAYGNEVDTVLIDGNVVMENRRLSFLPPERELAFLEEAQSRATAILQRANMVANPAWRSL

Nc1nc(N)nc(N)n1 [melamine]
color change indicating MDA-mediated conversion of melamine to ammonia: strong color change
